From ChEMBL document CHEMBL1159073, “Inhibition of IKK-beta: a new development in the mechanism of the anti-obesity effects of PTP1B inhibitors SA18 and SA32” (Bioorg Med Chem Lett, 2010) come the findings set out here.

Activity calls are given as the source filed them. No cut-off for these calls is given here.

Assay [1] addresses T1, Inhibitor of nuclear factor kappa-B kinase subunit beta (Homo sapiens, UniProt O14920).
T1 sequence (O14920 whole entry): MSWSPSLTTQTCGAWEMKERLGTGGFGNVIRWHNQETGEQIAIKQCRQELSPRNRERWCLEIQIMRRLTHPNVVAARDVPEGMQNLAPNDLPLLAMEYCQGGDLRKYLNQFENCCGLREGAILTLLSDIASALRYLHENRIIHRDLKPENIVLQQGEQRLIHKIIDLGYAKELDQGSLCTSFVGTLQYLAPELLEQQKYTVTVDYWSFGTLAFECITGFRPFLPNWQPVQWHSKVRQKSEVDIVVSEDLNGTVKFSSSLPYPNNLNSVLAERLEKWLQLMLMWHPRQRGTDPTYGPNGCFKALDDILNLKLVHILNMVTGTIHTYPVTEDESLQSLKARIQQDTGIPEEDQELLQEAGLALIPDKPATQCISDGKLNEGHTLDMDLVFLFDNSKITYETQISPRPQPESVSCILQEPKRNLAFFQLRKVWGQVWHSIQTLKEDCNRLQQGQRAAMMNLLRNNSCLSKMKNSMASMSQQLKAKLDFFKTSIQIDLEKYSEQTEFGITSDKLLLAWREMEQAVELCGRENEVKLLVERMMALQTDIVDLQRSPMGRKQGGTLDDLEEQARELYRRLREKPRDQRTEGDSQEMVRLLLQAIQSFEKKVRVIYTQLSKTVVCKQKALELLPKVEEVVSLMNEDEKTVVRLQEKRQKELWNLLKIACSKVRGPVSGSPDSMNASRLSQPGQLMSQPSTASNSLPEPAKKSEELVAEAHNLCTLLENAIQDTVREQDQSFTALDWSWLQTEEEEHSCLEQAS
In words: Inhibition of IKK-beta by tome resolved fluorescence assay.

For assay [2], the system named is Mus musculus. In words: Antiobesity activity in high fat diet-induced obese C57BL/6J Jms Slc mouse model assessed as retroperitoneal adipose tissue weight administered through diet for 28 days (reference value: 0.51+/-0.11). Type of assay: functional.
Assay [3] concerns 3T3-L1. In words: Inhibition of IkappaB-alpha degradation in LPS-stimulated mouse 3T3L1 cells at 50 uM pretreated 30 mins before LPS containing cytokine mixture challenge measured after 30 mins by Western blotting. It is filed as functional, cell-based. (Immunoblotting shows a protein as a band on a membrane.)
Assay [4] relates to Mus musculus. In words: Antiobesity activity in high fat diet-induced obese C57BL/6J Jms Slc mouse model assessed as blood nonesterified free fatty acid level administered through diet for 28 days (reference value: 0.35+/-0.09). Type of assay: functional.
The test system of assay [5] is 3T3-L1. In words: Inhibition of IkappaB-alpha degradation in LPS-stimulated mouse 3T3L1 cells at 50 uM pretreated 30 mins before LPS containing cytokine mixture challenge measured after 60 mins by Western blotting. Type of assay: functional, cell-based.
Assay [6] has as its system Mus musculus. In words: Antiobesity activity in high fat diet-induced obese C57BL/6J Jms Slc mouse model assessed as blood total cholesterol level administered through diet for 28 days (reference value: 141+/-10). It is filed as functional.
Assay [7] has as its system Mus musculus. In words: Antiobesity activity in high fat diet-induced obese C57BL/6J Jms Slc mouse model assessed as blood triglyceride level administered through diet for 28 days (reference value: 63+/-32). It is filed as functional.
In assay [8] the test system is Mus musculus. In words: Antiobesity activity in high fat diet-induced obese C57BL/6J Jms Slc mouse model assessed as epididymal adipose tissue weight administered through diet for 28 days (reference value: 1.8+/-0.49). Type of assay: functional.
Assay [9] is filed under the species Mus musculus. In words: Inhibition of IkappaB-alpha degradation in LPS-stimulated mouse […] cells at 50 uM pretreated 30 mins before LPS containing cytokine mixture challenge measured by Western blotting. It is filed as functional.
Assay [10] concerns Mus musculus. In words: Antiobesity activity in high fat diet-induced obese C57BL/6J Jms Slc mouse model assessed as change in body weight administered through diet for 28 days (reference value: 33.4+/-2.8). Type of assay: functional.

Broadly, the IC50 is the midpoint of a concentration-inhibition curve. A higher IC50 goes with a need for much substance. On to `O=C(Nc1cc(Cl)cc2c1[nH]c1cnccc12)c1cccnc1`, for which the IC50 in [1] amounted to 150 nM.

Turning to `O=C(O)c1cc(Cc2cc(C(=O)O)c(O)c(-c3ccccc3)c2)cc(-c2ccccc2)c1O`, the Activity was found to be 0.26 g in assay [2]; 0.24 mEq/L in assay [4]; 129 mg/dL in [6]; 42 mg/dL in [7]; 0.86 g in assay [8]; 29.2 g in [10]. Further, the inhibition result in assay [3], in [5] and in assay [9] was “Active” in each case.

As to `O=C(O)c1cc(-c2ccccc2)cc(Cc2cc(-c3ccccc3)cc(C(=O)O)c2O)c1O`, the Activity in assay [2] is 0.26 g; in [4] it was 0.14 mEq/L; in assay [6], 133 mg/dL; in assay [7], 48 mg/dL; in assay [8], 0.83 g; in assay [10], 28.9 g. Further, the inhibition result in [3], in [5] and in assay [9] was “Active” each time.
